Like-named read-outs stand apart in the source and are kept apart here.
Columns and labels:
SIRT1 = target: T1, SIRT1 (Homo sapiens, UniProt Q96EB6); assay: SIRT1 deacetylation reaction, recombinant protein; format: biochemical; conditions: deacetylase activity, SD always ≤10%
T1 sequence (Q96EB6 1-747): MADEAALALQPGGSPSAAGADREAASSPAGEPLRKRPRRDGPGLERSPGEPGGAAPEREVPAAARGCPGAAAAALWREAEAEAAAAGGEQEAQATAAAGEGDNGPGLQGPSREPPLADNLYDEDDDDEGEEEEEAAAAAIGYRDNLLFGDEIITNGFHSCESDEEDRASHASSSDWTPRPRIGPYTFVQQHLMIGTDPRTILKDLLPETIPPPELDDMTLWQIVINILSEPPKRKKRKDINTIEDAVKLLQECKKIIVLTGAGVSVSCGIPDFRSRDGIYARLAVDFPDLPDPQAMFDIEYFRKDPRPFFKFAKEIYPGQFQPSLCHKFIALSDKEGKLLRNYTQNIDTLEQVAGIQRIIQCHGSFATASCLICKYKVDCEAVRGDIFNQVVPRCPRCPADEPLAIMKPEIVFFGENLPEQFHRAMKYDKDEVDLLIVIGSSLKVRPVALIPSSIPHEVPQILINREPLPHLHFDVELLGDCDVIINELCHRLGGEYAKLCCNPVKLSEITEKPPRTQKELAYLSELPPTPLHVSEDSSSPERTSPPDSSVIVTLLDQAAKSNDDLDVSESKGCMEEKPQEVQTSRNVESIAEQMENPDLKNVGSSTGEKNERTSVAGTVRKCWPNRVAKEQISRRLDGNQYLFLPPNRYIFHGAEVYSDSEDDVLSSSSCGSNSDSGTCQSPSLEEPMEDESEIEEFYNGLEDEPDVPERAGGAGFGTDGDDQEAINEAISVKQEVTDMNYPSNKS
Method: (§1) Next, the selectivity of the compounds for SIRT2 against other sirtuins was also determined. The compounds were tested at the final concentration of 150 µM in the deacetylation reaction of SIRT1, SIRT3 and SIRT6, with this last one being promoted by the addition of the SIRT6 activator MDL-800 and also in the depalmitoylation reaction of SIRT6.

SIRT3 = target: T2, SIRT3 (Homo sapiens, UniProt Q9NTG7); assay: SIRT3 deacetylation reaction, recombinant protein; format: biochemical; conditions: deacetylase activity, SD always ≤10%
T2 sequence (Q9NTG7 1-399): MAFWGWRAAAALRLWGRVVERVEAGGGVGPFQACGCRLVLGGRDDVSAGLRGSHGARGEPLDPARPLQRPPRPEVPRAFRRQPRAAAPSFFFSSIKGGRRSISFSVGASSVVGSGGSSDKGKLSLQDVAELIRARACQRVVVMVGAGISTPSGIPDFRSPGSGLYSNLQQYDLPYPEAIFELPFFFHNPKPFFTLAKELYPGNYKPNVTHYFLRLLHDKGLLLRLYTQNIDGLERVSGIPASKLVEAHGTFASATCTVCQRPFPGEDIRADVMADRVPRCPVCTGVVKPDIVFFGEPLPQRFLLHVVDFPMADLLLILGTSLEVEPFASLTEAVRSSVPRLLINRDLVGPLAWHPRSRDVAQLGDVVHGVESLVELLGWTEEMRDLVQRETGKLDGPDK
Method: as §1

SIRT6 [1] = target: T3, SIRT6 (Homo sapiens, UniProt Q8N6T7); assay: SIRT6 deacetylation reaction promoted by the SIRT6 activator MDL-800, recombinant protein; format: biochemical; conditions: with SIRT6 activator MDL-800, SD always ≤10%; for % Inhibition SIRT6 (Deacetylase): 150 µM; for inhibition at 150 µM: read-out: % Inhibition SIRT6 (Deacetylase)
T3 sequence (Q8N6T7 whole entry, species assumed): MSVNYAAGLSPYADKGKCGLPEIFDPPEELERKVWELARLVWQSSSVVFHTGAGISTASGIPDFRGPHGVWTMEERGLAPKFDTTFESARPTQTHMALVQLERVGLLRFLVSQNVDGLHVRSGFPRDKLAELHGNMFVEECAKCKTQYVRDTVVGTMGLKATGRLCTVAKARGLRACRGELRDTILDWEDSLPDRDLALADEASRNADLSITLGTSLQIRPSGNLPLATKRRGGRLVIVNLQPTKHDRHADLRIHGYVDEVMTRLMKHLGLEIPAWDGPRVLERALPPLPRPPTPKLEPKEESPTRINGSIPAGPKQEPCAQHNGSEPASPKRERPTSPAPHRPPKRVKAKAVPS
Method: as §1

SIRT6 [2] = target: T3, SIRT6; assay: SIRT6 depalmitoylation reaction (H3K9Palm), recombinant protein; format: biochemical; conditions: 150 µM, SD always ≤10%
Method: as §1

SIRT2 [3] = target: T4, SIRT2 (Homo sapiens, UniProt Q8IXJ6); assay: SIRT2 deacetylase activity, recombinant SIRT2 with acetylated peptide H3K9Ac and NAD+; conditions: for inhibition at 150 µM: read-out: % Inhibition SIRT2 (at 150 μM)
T4 sequence (Q8IXJ6 1-389): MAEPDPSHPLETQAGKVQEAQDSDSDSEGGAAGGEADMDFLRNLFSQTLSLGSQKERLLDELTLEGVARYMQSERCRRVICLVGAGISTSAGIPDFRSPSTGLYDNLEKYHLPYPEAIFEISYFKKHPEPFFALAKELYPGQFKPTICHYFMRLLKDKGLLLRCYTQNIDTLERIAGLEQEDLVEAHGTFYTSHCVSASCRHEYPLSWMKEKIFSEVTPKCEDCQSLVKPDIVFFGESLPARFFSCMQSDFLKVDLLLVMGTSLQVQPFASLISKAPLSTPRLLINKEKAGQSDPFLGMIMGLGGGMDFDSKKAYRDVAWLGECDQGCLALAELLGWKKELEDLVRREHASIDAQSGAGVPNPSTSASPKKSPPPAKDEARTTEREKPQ
Method: The effect of urea derivatives on SIRT2 deacetylase activity was evaluated upon incubation of recombinant SIRT2 with an acetylated peptide (H3K9Ac, a peptide acetylated on Lys 9) and the co-substrate NAD^+.

SIRT2 [4] = target: T4, SIRT2; conditions: cited from earlier work
[5] = test system: acetylation of α-tubulin in SCC13 cells; assay: Western blot of α-tubulin acetylation (endogenous SIRT2 inhibition) in SCC13 cells; format: cell-based; conditions: 5 μM, 48 h, Western blot normalized to total α-tubulin
Method: To confirm that the effect of 5a on cell viability was due to its ability to inhibit the endogenous SIRT2, Western blot analyses were performed to quantify the level of acetylation of α-tubulin, a direct substrate of SIRT2 enzymatic activity.
SCC13 cells (3 × 10^5) were seeded in 60 mm Petri dishes and left to adhere overnight. The day after, the medium was replaced with a medium containing 5a at a final concentration of 5 µM or the respective amount of DMSO vehicle. After 48 h, the medium was removed, and cells were washed with PBS and lysed by scraping with 100 µL of lysis buffer (25 mM Tris-HCl, pH 7.8; 2 mM DTT; 2 mM EDTA, 10% glycerol; 1% Triton® X-100). The lysate was clarified by centrifugation, and the protein concentration was measured using the Bradford assay. Twenty µg of proteins were loaded on a 10% polyacrylamide gel and then transferred to a nitrocellulose membrane. The membrane was saturated with 5% skim milk powder solution in TBS-Tween 0.05%. To determine the acetylation of alpha-tubulin, membranes were incubated with an anti-acetyl-alpha-tubulin antibody (#5335, Cell Signaling Technology, Danvers, MA, USA), whose signal was normalized on the total amount of alpha-tubulin (#2125, Cell Signaling Technology).

[6] = Table S1, ref [2] Schiedel et al., J. Med. Chem. 2016, read-out: IC50 of SIRT2 inhibition (Table S1)
[7] = Table S2, SIRT2 inhibition of SirReal2 analogues, read-out: IC50 (Table S2)
[8] = SirReal2 analogs, read-out: SIRT2 IC50

COc1cccc(NC(=O)Nc2nc(-c3ccc(Br)cc3)c(C)s2)c1 [Compound 3b, 1-(4-(4-bromophenyl)-5-methylthiazol-2-yl)-3-(3-methoxyphenyl)urea]
inhibition at 150 µM (SIRT1): 98%
inhibition at 150 µM (SIRT3): 14%
% Inhibition SIRT6 (Deacetylase) (SIRT6 [1]): ni
% Inhibition SIRT6 (Depalmiotoylase) (SIRT6 [2]): ni
inhibition at 150 µM (SIRT2 [3]): 93 ± 4%

Cc1nc(SCC(=O)Nc2ncc(Cc3cccc4ccccc34)s2)nc(C)c1C [Compound 18]
IC50 (SIRT2 [4]; [6]): 15 µM
IC50 (SIRT2 [4]; [7]): 15 µM

Cc1cc(C)nc(SC(C)C(=O)Nc2ncc(Cc3cccc4ccccc34)s2)n1 (centres unmarked) [Compound 11]
IC50 (SIRT2 [4]; [6]): 9.8 µM
IC50 (SIRT2 [4]; [7]): 9.77 µM

CC(=O)c1cccc(NC(=O)Nc2nc(-c3ccc(Br)cc3)c(C)s2)c1 [Compound 3a, 1-(3-acetylphenyl)-3-(4-(4-bromophenyl)-5-methylthiazol-2-yl)urea]
inhibition at 150 µM (SIRT1): 86%
inhibition at 150 µM (SIRT3): 6%
inhibition at 150 µM (SIRT6 [1]): 42%
% Inhibition SIRT6 (Depalmiotoylase) (SIRT6 [2]): ni
IC50 (SIRT2 [3]): 37 ± 2 µM
inhibition at 150 µM (SIRT2 [3]): 100 ± 5%

Cc1sc(NC(=O)NCc2ccccc2)nc1-c1ccc(Br)cc1 [Compound 3d, 1-benzyl-3-(4-(4-bromophenyl)-5-methylthiazol-2-yl)urea]
inhibition at 150 µM (SIRT1): 99%
inhibition at 150 µM (SIRT3): 23%
inhibition at 150 µM (SIRT6 [1]): 15%
% Inhibition SIRT6 (Depalmiotoylase) (SIRT6 [2]): ni
IC50 (SIRT2 [3]): 108 ± 4 µM
inhibition at 150 µM (SIRT2 [3]): 100 ± 4%

CCc1cc(CC)nc(SCC(=O)Nc2ncc(Cc3cccc4ccccc34)s2)n1 [Compound 17]
IC50 (SIRT2 [4]; [6]): 45.6 µM

CCOc1ccc2nc(NC(=O)CSc3nc(C)cc(C)n3)sc2c1 [Compound 25]
IC50 (SIRT2 [4]; [6]): 207 µM
IC50 (SIRT2 [4]; [7]): 207 µM

O=C(CSc1cccc(O)c1)Nc1ncc(Cc2cccc3ccccc23)s1 [Compound 7]
IC50 (SIRT2 [4]; [8]): 143 to 207 µM
IC50 (SIRT2 [4]; [6]): 143 µM

CCOC(=O)c1sc(N)nc1-c1ccc(Br)cc1 [Compound 4]
IC50 (SIRT2 [4]; [6]): 3.4 µM

Cc1cc(C)nc(SCC(=O)Nc2nnc(C(F)(F)F)s2)n1 [Compound 21]
IC50 (SIRT2 [4]; [8]): 503 µM

Cc1cc(C)nc(SCC(=O)Nc2ncc(Cc3ccc(-c4ccccc4)cc3)s2)n1 [Compound 6]
IC50 (SIRT2 [4]; [6]): 164 µM

Cc1cc(C)nc(SCC(=O)Nc2ncc(Cc3c(C)ccc4ccccc34)s2)n1 [Compound 13]
IC50 (SIRT2 [4]; [6]): 0.3 µM
IC50 (SIRT2 [4]; [7]): 0.31 µM

CC(Br)C(=O)c1ccc(Br)cc1 (centres unmarked) [Compound 1]
IC50 (SIRT2 [4]; read-out: IC50 (Table S2), Table S2, SIRT2 inhibition of SirReal2 analogues): 3.75 µM
IC50 (SIRT2 [4]; read-out: IC50 of SIRT2 inhibition (Table S1), Table S1, ref [2] Schiedel et al., J. Med. Chem. 2016): 3.8 µM

Cc1cc(C)cc(SCC(=O)Nc2ncc(Cc3cccc4ccccc34)s2)c1 [Compound 8]
IC50 (SIRT2 [4]; [8]): 143 to 207 µM
IC50 (SIRT2 [4]; [6]): 207 µM

Cc1sc(N)nc1-c1ccc(Br)cc1 [Compound 2]
IC50 (SIRT2 [4]; [6]): 16.8 µM

CSc1cccc(NC(=O)Nc2nc(-c3ccc(Br)cc3)c(C)s2)c1 [Compound 3c, 1-(4-(4-bromophenyl)-5-methylthiazol-2-yl)-3-(3-(methylthio)phenyl)urea]
inhibition at 150 µM (SIRT1): 100%
inhibition at 150 µM (SIRT3): 20%
inhibition at 150 µM (SIRT6 [1]): 7%
% Inhibition SIRT6 (Depalmiotoylase) (SIRT6 [2]): ni
IC50 (SIRT2 [3]): 26 ± 4 µM
inhibition at 150 µM (SIRT2 [3]): 96 ± 6%

CCOc1cccc(Cc2cnc(NC(=O)CSc3nc(C)cc(C)n3)s2)c1 [Compound 5]
IC50 (SIRT2 [4]; [6]): 1.3 µM
IC50 (SIRT2 [4]; [7]): 1.33 µM

N#C/C(=C\c1ccc(-c2cc(Cl)ccc2Cl)o1)C(=O)Nc1cccc2ncccc12 [AGK2, reference compound]
level of α-tubulin acetylation vs control cells [5]: increased levels of alpha-tubulin acetylation

Cc1cc(C)nc(SCC(=O)Nc2ncc(Cc3cccc4ccc(Br)cc34)s2)n1 [Compound 14]
IC50 (SIRT2 [4]; [8]): 0.21 µM
IC50 (SIRT2 [4]; [6]): 0.2 µM

CCOC(=O)c1sc(NC(=O)NCc2ccccc2)nc1-c1ccc(Br)cc1 [Compound 5d, Ethyl 2-(3-benzylureido)-4-(4-bromophenyl)thiazole-5-carboxylate]
inhibition at 150 µM (SIRT1): 92%
inhibition at 150 µM (SIRT3): 24%
% Inhibition SIRT6 (Deacetylase) (SIRT6 [1]): ni
% Inhibition SIRT6 (Depalmiotoylase) (SIRT6 [2]): ni
inhibition at 150 µM (SIRT2 [3]): 93 ± 4%

Cc1cc(C)nc(SCC(=O)Nc2nnc(Cc3ccc(Cl)cc3)s2)n1 [Compound 22]
IC50 (SIRT2 [4]; [6]): 30.9 µM

Cc1cc(C)nc(SCC(=O)Nc2ncc(Cc3cccc4ccc(Cl)cc34)s2)n1 [Compound 10]
IC50 (SIRT2 [4]; [6]): 0.2 µM
IC50 (SIRT2 [4]; [7]): 0.18 µM

CCCc1cc(O)nc(SCC(=O)Nc2ncc(Cc3cccc4ccccc34)s2)n1 [Compound 20]
IC50 (SIRT2 [4]; [6]): 127 µM
IC50 (SIRT2 [4]; [7]): 127 µM

Cc1cc(C)nc(SCC(=O)Nc2ncc(C(=O)Nc3cccc4ccccc34)s2)n1 [Compound 9]
IC50 (SIRT2 [4]; [6]): 33 µM

O=C(CSc1ncccn1)Nc1ncc(Cc2cccc3ccccc23)s1 [Compound 16]
IC50 (SIRT2 [4]; [6]): 2.3 µM
IC50 (SIRT2 [4]; [7]): 2.34 µM

Cc1cc(C)nc(SC(C)C(=O)Nc2ncc(Cc3cccc4ccccc34)s2)n1 (centres unmarked) [Compound 12]
IC50 (SIRT2 [4]; [6]): 0.3 µM
IC50 (SIRT2 [4]; [7]): 0.26 µM

Cc1cc(C)nc(SCC(=O)Nc2nnc(Cc3cccc4ccccc34)s2)n1 [Compound 24]
IC50 (SIRT2 [4]; [6]): 1.9 µM
IC50 (SIRT2 [4]; [7]): 1.89 µM

Cc1cc(C)nc(SCC(=O)Nc2nnc(Cc3ccc(Br)cc3)s2)n1 [Compound 23]
IC50 (SIRT2 [4]; [6]): 168 µM

Source: article PMC11508362, “Discovery of Novel Thiazole-Based SIRT2 Inhibitors as Anticancer Agents: Molecular Modeling, Chemical Synthesis and Biological Assays” (International Journal of Molecular Sciences, 2024)
